Measured values reported in patent US20240309003A1, “HETEROCYCLIC COMPOUNDS AS TRIGGERING RECEPTOR EXPRESSED ON MYELOID CELLS 2 AGONISTS AND METHODS OF USE” (Vigil Neuroscience, Inc., priority 2021, published 2024).

Molecular target: T1, human TREM2 (Homo sapiens, UniProt Q9NZC2)
T1 construct: expressed in transfected cells; host or cells: HEK293T
Assay: TREM2 agonist potency by cellular phosphorylation of Syk (AlphaLisa) in HEK293T-hTREM2 cells
Assay type: cell-based
In short: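 Agonist EC50 from a variable-slope four-parameter fit of % activation, based on AlphaLisa phospho-Syk levels in lysates. Cells: HEK293T-hTREM2 (with DAP12), treated 45 min at room temperature with compound in assay buffer.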

[1] = HEK293 cells expressing human TREM2 and DAP12, Table D
[2] = HEK293 cells expressing human TREM2 and DAP12, Table D-2

T1 sequence (Q9NZC2 19-230): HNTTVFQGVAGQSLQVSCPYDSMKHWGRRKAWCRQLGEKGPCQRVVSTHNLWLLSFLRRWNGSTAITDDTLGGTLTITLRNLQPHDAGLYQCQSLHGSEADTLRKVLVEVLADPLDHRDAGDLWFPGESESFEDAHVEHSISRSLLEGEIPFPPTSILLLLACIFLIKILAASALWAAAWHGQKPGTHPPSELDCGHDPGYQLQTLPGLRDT
T1 sequence (O43914 22-113 partner): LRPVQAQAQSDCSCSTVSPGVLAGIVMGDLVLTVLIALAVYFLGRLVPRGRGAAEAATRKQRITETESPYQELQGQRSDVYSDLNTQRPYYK

Structure (SMILES)	EC50 [1]	EC50 [2]
COc1cccc([C@H]2C[C@@H](c3nc(-c4ccc(F)cc4F)c4nc(C)c(C)nc4n3)CCO2)n1 [Example 165, 4-(2,4-difluorophenyl)-2-((2R,4S)-2-(6-methoxypyridin-2-yl)tetrahydro-2H-pyran-4-yl)-6,7-dimethylpteridine]	50 to 500 nM	
Cc1nc2nc(C3C[C@@H](C)O[C@@H](c4cn[nH]c4)C3)nc(-c3ccc(F)cc3F)c2nc1C (stereo partly shown) [Example 168]	50 to 500 nM	
Cc1nc2nc([C@H]3CCO[C@@H](c4cnn(C5CC5)c4)C3)cc(-c3ccc(Cl)cc3F)c2nc1C [Example 224, 8-(4-chloro-2-fluorophenyl)-6-((2R,4S)-2-(1-cyclopropyl-1H-pyrazol-4-yl)tetrahydro-2H-pyran-4-yl)-2,3-dimethylpyrido[2,3-b]pyrazine]	< 50 nM	
Cc1nc2nc([C@H]3CCO[C@@H](c4cnn(C5CC5)c4)C3)nc(-c3ccc(C(F)(F)F)cc3)c2nc1C [Example 139]	< 50 nM	
Cc1nc2nc([C@@H]3CCO[C@H](c4cccc(=O)n4C)C3)nc(-c3ccc(F)cc3F)c2nc1C [Example 202]	500 to 3000 nM	
Cc1cnc2c(C34CC(C(F)(F)F)(C3)C4)nc(N3C[C@@H](c4cnn(C5CC5)c4)O[C@@H](C)C3)nc2n1 [Example 125, (2R,6S)-2-(1-cyclopropyl-1H-pyrazol-4-yl)-6-methyl-4-(7-methyl-4-(3-(trifluoromethyl)bicyclo[1.1.1]pentan-1-yl)pteridin-2-yl)morpholine]	< 50 nM	
Cc1cnc2c(C34CC(C(F)(F)F)(C3)C4)nc(N3C[C@@H](C)O[C@@H](c4cnn(C5CC5)c4)C3)nc2n1 [Example 126, (2S,6R)-2-(1-cyclopropyl-1H-pyrazol-4-yl)-6-methyl-4-(7-methyl-4-(3-(trifluoromethyl)bicyclo[1.1.1]pentan-1-yl)pteridin-2-yl)morpholine]	< 50 nM	
Cc1cc([C@@H]2C[C@H](c3cc4nc(C)c(C)cc4c(-c4ccc(Cl)cc4F)n3)CCO2)ccn1 [Example 225, 5-(4-chloro-2-fluorophenyl)-2,3-dimethyl-7-((2S,4R)-2-(2-methylpyridin-4-yl)tetrahydro-2H-pyran-4-yl)-1,6-naphthyridine]	500 to 3000 nM	
Cc1cnc2c(C34CC(C(F)(F)F)(C3)C4)nc(N3C[C@@H](C)O[C@@H](c4cnn(C5CC5)c4)C3)nc2n1 (racemic) [Example 49, 2-(1-cyclopropyl-1H-pyrazol-4-yl)-6-methyl-4-(7-methyl-4-(3-(trifluoromethyl)bicyclo[1.1.1]pentan-1-yl)pteridin-2-yl)morpholine]	< 50 nM	
Cc1nc2nc([C@H]3CCO[C@@H](c4cnn(C5CC5)c4)C3)nc(-c3cc(F)c(F)cc3F)c2nc1C [Example 153, 2-((2R,4S)-2-(1-cyclopropyl-1H-pyrazol-4-yl)tetrahydro-2H-pyran-4-yl)-6,7-dimethyl-4-(2,4,5-trifluorophenyl)pteridine]	< 50 nM	
Cc1nc2nc([C@H]3CCO[C@@H](c4cnn(C5CC(F)C5)c4)C3)nc(C34CC(C(F)(F)F)(C3)C4)c2nc1C (stereo in doubt) [Example 135, 2-((2R,4S)-2-(1-(3-fluorocyclobutyl)-1H-pyrazol-4-yl)tetrahydro-2H-pyran-4-yl)-6,7-dimethyl-4-(3-(trifluoromethyl)bicyclo[1.1.1]pentan-1-yl)pteridine]	50 to 500 nM	
Cc1nc2nc(-c3ccc(Cl)cc3F)cc([C@H]3CCO[C@@H](c4cnn(C5CC5)c4)C3)c2nc1C [Example 237, 6-(4-chloro-2-fluorophenyl)-8-((2R,4S)-2-(1-cyclopropyl-1H-pyrazol-4-yl)tetrahydro-2H-pyran-4-yl)-2,3-dimethylpyrido[2,3-b]pyrazine]	< 50 nM	
Cc1nc2nc(N3CCO[C@H](c4cnn(C5CC5)c4)C3)nc(-c3ccc4c(c3)CC4)c2nc1C [Example 242, (R)-4-(4-(bicyclo[4.2.0]octa-1,3,5-trien-3-yl)-6,7-dimethylpteridin-2-yl)-2-(1-cyclopropyl-1H-pyrazol-4-yl)morpholine]	< 50 nM	
Cc1nc2cc([C@H]3CCO[C@@H](c4cnn(C5CC5)c4)C3)cc(-c3ccc(F)cc3Cl)c2nc1C [Example 229, 5-(2-chloro-4-fluorophenyl)-7-((2R,4S)-2-(1-cyclopropyl-1H-pyrazol-4-yl)tetrahydro-2H-pyran-4-yl)-2,3-dimethylquinoxaline]	50 to 500 nM	
Cc1nc2nc(N3CCO[C@@H](c4cc[nH]c(=O)c4)C3)nc(-c3ccc(C(F)(F)F)nc3)c2nc1C [Example 195, (S)-4-(4-(6,7-dimethyl-4-(6-(trifluoromethyl)pyridin-3-yl)pteridin-2-yl)morpholin-2-yl)pyridin-2(1H)-one]	< 50 nM	
Cc1nc2nc([C@H]3CCO[C@@H](c4cnn(C5CC5)c4)C3)nc(C3CCC(F)(F)CC3)c2nc1C [Example 180, 2-((2R,4S)-2-(1-cyclopropyl-1H-pyrazol-4-yl)tetrahydro-2H-pyran-4-yl)-4-(4,4-difluorocyclohexyl)-6,7-dimethylpteridine]	< 50 nM	
[2H]C([2H])([2H])c1ccc(-c2nc([C@H]3CCO[C@@H](c4cnn(C([2H])([2H])[2H])c4)C3)nc3nc(C([2H])([2H])[2H])c(C([2H])([2H])[2H])nc23)cc1 [Example 175, 6,7-bis(methyl-d3)-2-((2R,4S)-2-(1-(methyl-d3)-1H-pyrazol-4-yl)tetrahydro-2H-pyran-4-yl)-4-(4-(methyl-d3)phenyl)pteridine]	50 to 500 nM	
Cc1cc([C@H]2C[C@@H](c3nc(-c4ccc(Cl)c(F)c4F)c4ncc(C)nc4n3)CCO2)ccn1 [Example 130, 4-(4-chloro-2,3-difluorophenyl)-7-methyl-2-((2R,4S)-2-(2-methylpyridin-4-yl)tetrahydro-2H-pyran-4-yl)pteridine]	< 50 nM	
Cc1nc2cc([C@H]3CCO[C@@H](c4cnn(C5CC5)c4)C3)cc(-c3ccc(Cl)cc3F)c2nc1C [Example 228, 5-(4-chloro-2-fluorophenyl)-7-((2R,4S)-2-(1-cyclopropyl-1H-pyrazol-4-yl)tetrahydro-2H-pyran-4-yl)-2,3-dimethylquinoxaline]	50 to 500 nM	
[2H]C1(n2cc([C@H]3C[C@@H](c4nc(-c5ccc(Cl)cc5F)c5nc(C)c(C)nc5n4)CCO3)cn2)CC1 [Example 179, 4-(4-chloro-2-fluorophenyl)-2-((2R,4S)-2-(1-(cyclopropyl-1-d)-1H-pyrazol-4-yl)tetrahydro-2H-pyran-4-yl)-6,7-dimethylpteridine]	< 50 nM	
Cc1nc2nc([C@H]3CCO[C@@H](c4cnn(C5CC5)c4)C3)nc(C34CC(C(C)C)(C3)C4)c2nc1C [Example 127, 2-((2R,4S)-2-(1-cyclopropyl-1H-pyrazol-4-yl)tetrahydro-2H-pyran-4-yl)-4-(3-isopropylbicyclo[1.1.1]pentan-1-yl)-6,7-dimethylpteridine]	< 50 nM	

Further lines, results first:

EC50 [1]	EC50 [2]	Structure (SMILES)
	< 50 nM	Cc1nc2nc(N3C[C@@H](C)O[C@@H](c4cnn(CCO)c4)C3)nc(-c3ccc(Cl)cc3F)c2nc1C [Example I-1686, 2-(4-((2S,6R)-4-(4-(4-chloro-2-fluorophenyl)-6,7-dimethylpteridin-2-yl)-6-methylmorpholin-2-yl)-1H-pyrazol-1-yl)ethan-1-ol]
	3000 to 100000 nM	Cc1nc2cc([C@H]3CCO[C@@H](c4cnn(C5CC5)c4)C3)nc(-c3ccc(F)cc3F)c2nc1COC(F)F [Example I-1490, 7-((2R,4S)-2-(1-cyclopropyl-1H-pyrazol-4-yl)tetrahydro-2H-pyran-4-yl)-3-((difluoromethoxy)methyl)-5-(2,4-difluorophenyl)-2-methylpyrido[3,4-b]pyrazine]
	500 to 3000 nM	Cc1cc(-c2nc(N3C[C@@H](C)O[C@@H](c4cnn(C5CC5)c4)C3)nc3nc(C)c(C)nc23)on1 [Example I-1086, (2S,6R)-2-(1-cyclopropylpyrazol-4-yl)-4-[6,7-dimethyl-4-(3-methylisoxazol-5-yl)pteridin-2-yl]-6-methyl-morpholine]
	< 50 nM	Cc1nc2nc(N3C[C@@H](C)O[C@@H](c4cnn(C5CC5)c4)C3)nc(-c3ccc4c(c3F)CCC4(F)F)c2nc1C [Example I-1485, (2S,6R)-2-(1-cyclopropylpyrazol-4-yl)-4-[6,7-dimethyl-4-(1,1,4-trifluoroindan-5-yl)pteridin-2-yl]-6-methyl-morpholine]
	50 to 500 nM	Cc1nc2nc([C@H]3CCO[C@@H](c4cnn(C5CC5)c4)C3)nc(-c3ccc(OC(F)(F)F)cc3F)c2nc1C [Example I-1313, 2-((2R,4S)-2-(1-cyclopropyl-1H-pyrazol-4-yl)tetrahydro-2H-pyran-4-yl)-4-(2-fluoro-4-(trifluoromethoxy)phenyl)-6,7-dimethylpteridine]
	< 50 nM	COCn1cc([C@H]2CN(c3nc(-c4ccc(F)cc4F)c4nc(C)c(C)nc4n3)C[C@@H](C)O2)cn1 [Example I-1441, (2S,6R)-4-[4-(2,4-difluorophenyl)-6,7-dimethyl-pteridin-2-yl]-2-[1-(methoxymethyl)pyrazol-4-yl]-6-methyl-morpholine]
	3000 to 100000 nM	Cc1nc2nc(N3C[C@H](CO)O[C@H](c4cnn(C5CC5)c4)C3)nc(-c3ccc(F)cc3F)c2nc1C [Example I-1334, [(2R,6R)-6-(1-cyclopropylpyrazol-4-yl)-4-[4-(2,4-difluorophenyl)-6,7-dimethyl-pteridin-2-yl]morpholin-2-yl]methanol]
	< 50 nM	Cc1nc2nc(N3C[C@@H](C(F)F)O[C@@H](c4cnn(C5CC5)c4)C3)nc(-c3ccc(F)cc3F)c2nc1C (single isomer, unassigned) [Example I-1467]
	< 50 nM	Cc1nc2nc(N3C[C@@H](C4CC4)O[C@@H](c4cnn(C(F)F)c4)C3)nc(-c3ccc(C(F)(F)F)cc3F)c2nc1C [Example I-1711, (2R,6S)-2-cyclopropyl-6-[1-(difluoromethyl)pyrazol-4-yl]-4-[4-[2-fluoro-4-(trifluoromethyl)phenyl]-6,7-dimethyl-pteridin-2-yl]morpholine]
	500 to 3000 nM	Cc1nc2nc(N3CCCO[C@H](c4cnn(C5CC5)c4)C3)nc(-c3ccc(F)cc3F)c2nc1C (stereo in doubt) [Example I-1144, 2-(1-cyclopropyl-1H-pyrazol-4-yl)-4-(4-(2,4-difluorophenyl)-6,7-dimethylpteridin-2-yl)-1,4-oxazepane]
